Key:
CYP1A2 = biological target: T1, CYP1A2 (Rattus norvegicus, UniProt P04799); assay: In vitro cocktail CYP450 activity assay in rat liver microsomes, CYP1A2 (phenacetin probe)
T1 sequence (P04799 1-513): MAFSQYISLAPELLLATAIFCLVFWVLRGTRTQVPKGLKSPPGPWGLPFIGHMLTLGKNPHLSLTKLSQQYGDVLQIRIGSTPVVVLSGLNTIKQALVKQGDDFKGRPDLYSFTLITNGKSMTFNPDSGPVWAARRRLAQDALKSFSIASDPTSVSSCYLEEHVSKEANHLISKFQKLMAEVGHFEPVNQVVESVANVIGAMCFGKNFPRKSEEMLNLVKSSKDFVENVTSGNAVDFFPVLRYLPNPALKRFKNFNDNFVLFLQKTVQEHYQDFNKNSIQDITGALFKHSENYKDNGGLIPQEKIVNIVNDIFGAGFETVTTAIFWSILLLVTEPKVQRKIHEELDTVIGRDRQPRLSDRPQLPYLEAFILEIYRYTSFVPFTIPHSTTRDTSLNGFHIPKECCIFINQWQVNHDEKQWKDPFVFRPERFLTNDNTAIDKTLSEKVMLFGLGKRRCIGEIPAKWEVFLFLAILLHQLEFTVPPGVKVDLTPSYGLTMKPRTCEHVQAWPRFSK
Description: (§1) (OHBUP-[D6]) and 5 nM 4′-hydroxydiclofenac-[^13C6] (OHDIC-[^13C6]) as internal standards (ISs). […]
(§2) standard addition experiments. Each group included four concentration levels. For the PK […]
(§3) The probe compounds, viz. […]
(§4) chosen after incubating all the recruited substrates. In order to assure the linear relationship […]
(§5) The incubation system was also optimized in terms of substrate concentrations. The substrates concentrations of […]

CYP2E1 [1] = biological target: T2, CYP2E1 (Rattus norvegicus, UniProt P05182); conditions: at the Cmax level in rat plasma, calculated from the dose–response curve
T2 sequence (P05182 whole entry): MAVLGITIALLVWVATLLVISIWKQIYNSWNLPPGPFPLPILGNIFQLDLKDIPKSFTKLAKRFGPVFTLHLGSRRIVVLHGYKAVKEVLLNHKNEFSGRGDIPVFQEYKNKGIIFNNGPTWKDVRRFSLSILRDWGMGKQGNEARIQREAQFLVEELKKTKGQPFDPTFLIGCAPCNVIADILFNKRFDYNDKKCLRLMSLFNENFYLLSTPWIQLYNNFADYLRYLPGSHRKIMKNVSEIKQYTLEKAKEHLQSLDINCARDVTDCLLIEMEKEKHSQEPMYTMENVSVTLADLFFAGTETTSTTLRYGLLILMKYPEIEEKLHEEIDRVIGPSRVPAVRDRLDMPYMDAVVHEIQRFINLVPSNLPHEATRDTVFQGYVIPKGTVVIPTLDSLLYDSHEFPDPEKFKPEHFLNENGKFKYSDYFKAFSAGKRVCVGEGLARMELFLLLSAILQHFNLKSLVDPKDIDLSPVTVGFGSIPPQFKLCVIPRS
Description: (§6) For the cocktail assay, the activity is expressed as the percentage of activity remaining comparing with that of a control sample containing no inhibitor. […] All the data were described as mean ± standard deviation (SD). Normality assumptions were tested by the Kolmogorov–Smirnov statistic setting p = 0.10 as the limit for rejection of the null hypothesis of normality. If the distribution of the data was normal with equal variances, a two-sided test was performed at the 5% level of significance. The Welch’s correction was then applied when the underlying variances were not equal. When the assumption of normality must be rejected, the Mann-Whitney test, a non-parametric equivalent of the independent-measures t-test, was used.

CYP2B6 = assay: In vitro cocktail CYP450 activity assay in rat liver microsomes, CYP2B6 (bupropion probe)
Description: as §1, §2, §3, §4, §5

CYP2D6 = assay: in vitro; conditions: Sprague-Dawley, rat
Description: as §1, §2, §3, §4, §5

CYP2C9 = assay: In vitro cocktail CYP450 activity assay in rat liver microsomes, CYP2C9 (tolbutamide probe)
Description: as §1, §2, §3, §4, §5

CYP3A4 = assay: in vitro; conditions: Sprague-Dawley, rat, pH 7.4
Description: as §1, §2, §3, §4, §5

CYP2E1 [2] = biological target: T2, CYP2E1; conditions: IC50 CYP2E1, single components; RLM 0.2 mg/mL, 15 min, triplicate, mean ± SD
Description: as §6

in vivo = assay: in vivo; parameters: species or system Sprague-Dawley (SD) rats; conditions: Sprague-Dawley, plasma, rat
Description: At each time, 0.5 mL of blood was collected in the heparin sodium tubes. Plasma was separated by centrifugation at 4000 rpm for 10 min and stored below −80 °C until bioanalysis. Oasis PRiME HLB SPE cartridges (1 cc/30 mg, Waters, Milford, MA, USA) were used to process the plasma samples (Supplementary Materials).
The generic layout of instrumentation setup of the LVDI-UHPLC-MS/MS was conducted on a Shimadzu UHPLC system consisting of two LC-20ADXR pumps, a DGU-20A3R degasser, and a CBM-20A controller (Kyoto, Japan) with a SCIEX 4500 QTRAP mass spectrometer mounted with an electron spray ionization (ESI) interface as well as an electronic 6-port/2-channel valve (Foster City, CA, USA). Analyst software package (version 1.6.2, SCIEX) was implemented to control and synchronize the entire system, and also for data acquisition and processing. A single analytical run was fragmented into two phases, namely, loading and elution phases, by switching the electronic valve (Figure 2). At the loading phase, the valve was maintained at A-channel. The specimen aliquot of large volume delivered from the auto-sampler was captured onto a guard column. Meanwhile, the pumps were responsible for delivering the mobile phase at a high flow rate, aiming to dilute the sample solvent, thus facilitating the candidate constituents to concentrate on the pre-guard column. Then, the valve was automatically switched to the B-channel to trigger the elution phase. The trapped components were flushed from the pre-guard column into an analytical column, and underwent multiple reaction monitoring (MRM) analysis on the optimized LC gradients. The detailed information of LVDI-UHPLC-MS/MS analysis for pharmacokinetic and cocktail studies is shown in the Supplementary Materials section.

CYP2C19 = assay: In vitro cocktail CYP450 activity assay in rat liver microsomes, CYP2C19 (omeprazole probe)
Description: as §1, §2, §3, §4, §5

[3] = at the Cmax level in rat plasma, calculated from the dose–response curve

CC(C)=CCC[C@](C)(O[C@@H]1O[C@H](CO[C@@H]2O[C@H](CO)[C@@H](O)[C@H](O)[C@H]2O)[C@@H](O)[C@H](O)[C@H]1O)[C@H]1CC[C@]2(C)[C@@H]1[C@H](O)C[C@@H]1[C@@]3(C)CC[C@H](O[C@@H]4O[C@H](CO)[C@@H](O)[C@H](O)[C@H]4O[C@@H]4O[C@H](CO)[C@@H](O)[C@H](O)[C@H]4O)C(C)(C)[C@@H]3CC[C@]12C [GRb1, ginsenoside Rb1]
IC50 (CYP1A2; IC50 CYP1A2, single components, RLM 0.2 mg/mL, 15 min, triplicate, mean ± SD): 5.84 ± 0.14 µM
Response (% control) CYP1A2 (CYP1A2; [3]): 79.30 % control
Response (% control) CYP2E1 (CYP2E1 [1]): 99.99 % control
IC50 at 15 min (CYP2B6; Sprague-Dawley, rat, pooled rat liver microsomes, pH 7.4, probe bupropion (90 µM, in seven-probe cocktail), IC50 CYP2B6, single components, RLM 0.2 mg/mL, 15 min, triplicate, mean ± SD): 121 ± 10.9 µM
Response (% control) CYP2B6 (CYP2B6; [3]): 96.46 % control
Response (% control) CYP2D6 (CYP2D6; 15 min, pH 7.4): 98.58 % control
IC50 at 15 min (CYP2D6; microsomes, pH 7.4, IC50 CYP2D6): 17.1 ± 1.29 µM
IC50 at 15 min (CYP2C9; Sprague-Dawley, rat, pooled rat liver microsomes, pH 7.4, probe tolbutamide (18 µM, in seven-probe cocktail), IC50 CYP2C9, single components, RLM 0.2 mg/mL, 15 min, triplicate, mean ± SD): 17.6 ± 2.03 µM
Response (% control) CYP2C9 (CYP2C9; [3]): 99.70 % control
Response (% control) CYP3A4 (CYP3A4; 15 min): 99.99 % control
IC50 at 15 min (CYP3A4; microsomes): 30 ± 2.47 µM
IC50 (CYP2E1 [2]): 28 ± 2.39 µM
concentration at […] (in vivo; 0.083 h after oral CNP): 18.7 ± 4.36 ng/mL
concentration at 0.25 h (in vivo; 0.25 h after oral CNP): 22.5 ± 4.27 ng/mL
concentration at 0.5 h (in vivo; 0.5 h after oral CNP): 36.1 ± 7.79 ng/mL
concentration at 1 h (in vivo; 1 h after oral CNP): 45.5 ± 3.29 ng/mL
concentration at 1.5 h (in vivo; 1.5 h after oral CNP): 54.6 ± 10.9 ng/mL
concentration at 2 h (in vivo; 2 h after oral CNP): 60.5 ± 12 ng/mL
concentration at 3 h (in vivo; 3 h after oral CNP): 69.5 ± 9.4 ng/mL
concentration at 4 h (in vivo; 4 h after oral CNP): 83.9 ± 31.8 ng/mL
concentration at 6 h (in vivo; 6 h after oral CNP): 113 ± 74.6 ng/mL
concentration at 8 h (in vivo; 8 h after oral CNP): 80 ± 20.6 ng/mL
concentration at 12 h (in vivo; 12 h after oral CNP): 63.9 ± 28.4 ng/mL
concentration at 24 h (in vivo; 24 h after oral CNP): 22.4 ± 4.86 ng/mL
concentration at 48 h (in vivo; 48 h after oral CNP): 19.4 ± 3.81 ng/mL
concentration at 72 h (in vivo; 72 h after oral CNP): 9.62 ± 1.02 ng/mL
concentration at 96 h (in vivo; 96 h after oral CNP): 6.43 ± 2.45 ng/mL
AUC(0-inf) (in vivo; po, 60 mg/kg): 2810 ± 618 ng·h/mL
AUC(0-t) (in vivo; po, 60 mg/kg): 2320 ± 683 ng·h/mL
Cmax (in vivo; po, 60 mg/kg): 113 ± 41.8 ng/mL
Tmax (in vivo; po, 60 mg/kg): 5.5 ± 1.8 h
half-life (in vivo; po, 60 mg/kg): 36.9 ± 9.65 h
concentration at 0.25 h (in vivo; po, 60 mg·kg^−1): 27.9 ± 4.54 ng/mL
concentration at 0.5 h (in vivo; po, 60 mg·kg^−1): 38.1 ± 3.67 ng/mL
concentration at 1 h (in vivo; po, 60 mg·kg^−1): 53.5 ± 12 ng/mL
concentration at 1.5 h (in vivo; po, 60 mg·kg^−1): 58.4 ± 12.4 ng/mL
concentration at 2 h (in vivo; po, 60 mg·kg^−1): 61.9 ± 19.5 ng/mL
concentration at 3 h (in vivo; po, 60 mg·kg^−1): 78.1 ± 12.8 ng/mL
concentration at 4 h (in vivo; po, 60 mg·kg^−1): 86.9 ± 41 ng/mL
concentration at 6 h (in vivo; po, 60 mg·kg^−1): 107 ± 42.1 ng/mL
concentration at 8 h (in vivo; po, 60 mg·kg^−1): 75.7 ± 26.3 ng/mL
concentration at 12 h (in vivo; po, 60 mg·kg^−1): 53.9 ± 19.1 ng/mL
concentration at 24 h (in vivo; po, 60 mg·kg^−1): 19.2 ± 5.86 ng/mL
concentration at 48 h (in vivo; po, 60 mg·kg^−1): 18.9 ± 8.97 ng/mL
concentration at 72 h (in vivo; po, 60 mg·kg^−1): 9.45 ± 3.37 ng/mL
concentration at 96 h (in vivo; po, 60 mg·kg^−1): 6.79 ± 1.89 ng/mL
IC50 at 15 min (CYP2C19; Sprague-Dawley, rat, pooled rat liver microsomes, pH 7.4, probe omeprazole (1.07 µM, in seven-probe cocktail), IC50 CYP2C19, single components, RLM 0.2 mg/mL, 15 min, triplicate, mean ± SD): 16.8 ± 2.52 µM
Response (% control) CYP2C19 (CYP2C19; [3]): 98.58 % control

— article PMC7076352 (Pharmaceutics, 2020)
